Data reported in paper PMC8111447 (Frontiers in Pharmacology, 2021).

What was measured:
Assay in all cases: Kinase panel (Eurofins)
Assay type in all cases: biochemical
Conditions in all cases: n = 2; for inhibition at 1 µM: at 1 μmol/L; for IC50: read-out: IC50 kinase inhibition
TSSK1(h) = biological target: T1, TSSK1(h) (Homo sapiens, UniProt Q9BXA7)
T1 construct: purchased Eurofins
T1 sequence (Q9BXA7 1-367): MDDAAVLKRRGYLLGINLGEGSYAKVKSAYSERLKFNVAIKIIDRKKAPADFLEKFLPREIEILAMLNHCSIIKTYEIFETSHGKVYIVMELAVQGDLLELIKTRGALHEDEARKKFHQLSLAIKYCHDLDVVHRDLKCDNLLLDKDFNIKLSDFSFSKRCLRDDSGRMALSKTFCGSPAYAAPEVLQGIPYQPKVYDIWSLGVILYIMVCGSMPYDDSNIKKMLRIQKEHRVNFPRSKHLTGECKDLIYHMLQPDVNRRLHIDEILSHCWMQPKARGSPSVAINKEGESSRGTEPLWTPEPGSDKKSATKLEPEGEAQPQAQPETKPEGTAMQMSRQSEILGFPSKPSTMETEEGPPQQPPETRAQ
Source text: (§1) These receptors have a methionine gatekeeper in their kinase domains, and are related to hyperglycemia in other clinical trials of EGFR TKI, such as Co-1686.

PTK5(h) = biological target: T2, PTK5(h) (Homo sapiens, UniProt P42685)
T2 construct: purchased Eurofins
Source text: as §1

LOK(h) = biological target: T3, LOK(h) (Homo sapiens, UniProt O94804)
T3 construct: purchased Eurofins
Source text: as §1

Tec(h) activated = biological target: T4, Tec(h) activated (Homo sapiens, UniProt P42680)
T4 construct: purchased Eurofins
T4 sequence (P42680 1-631): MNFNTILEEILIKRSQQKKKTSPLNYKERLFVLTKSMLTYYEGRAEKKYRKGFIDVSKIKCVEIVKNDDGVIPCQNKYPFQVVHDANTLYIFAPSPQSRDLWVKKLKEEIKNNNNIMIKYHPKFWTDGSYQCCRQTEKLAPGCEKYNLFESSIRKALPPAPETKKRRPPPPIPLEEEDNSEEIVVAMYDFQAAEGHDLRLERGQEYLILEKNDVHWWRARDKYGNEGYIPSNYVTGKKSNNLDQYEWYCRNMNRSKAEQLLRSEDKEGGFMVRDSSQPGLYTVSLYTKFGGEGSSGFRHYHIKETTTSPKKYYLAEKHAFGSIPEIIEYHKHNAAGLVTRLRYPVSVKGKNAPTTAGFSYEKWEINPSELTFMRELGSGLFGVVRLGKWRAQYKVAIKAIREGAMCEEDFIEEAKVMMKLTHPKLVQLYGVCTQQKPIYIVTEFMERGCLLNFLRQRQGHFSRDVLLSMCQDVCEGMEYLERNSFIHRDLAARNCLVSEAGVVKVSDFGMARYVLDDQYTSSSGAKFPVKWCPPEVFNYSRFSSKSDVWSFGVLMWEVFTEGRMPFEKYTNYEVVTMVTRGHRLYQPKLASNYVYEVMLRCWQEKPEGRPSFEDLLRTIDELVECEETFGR
Source text: as §1

ErbB4(h) = biological target: T5, ErbB4(h) (Homo sapiens, UniProt Q15303)
T5 construct: purchased Eurofins
Source text: as §1

ACK1(h) = biological target: T6, ACK1(h) (Homo sapiens, UniProt Q07912)
T6 construct: purchased Eurofins
Source text: as §1

FAK(h) = biological target: T7, FAK(h) (Homo sapiens, UniProt Q05397)
T7 construct: purchased Eurofins
Source text: as §1

Blk(h) = biological target: T8, Blk(h) (Homo sapiens, UniProt P51451)
T8 construct: purchased Eurofins
Source text: as §1

ALK(h) = biological target: T9, ALK(h) (Homo sapiens, UniProt Q9UM73)
T9 construct: purchased Eurofins
Source text: as §1

ErbB2(h) = biological target: T10, ErbB2(h) (Homo sapiens, UniProt P04626)
T10 construct: purchased Eurofins
Source text: as §1

T6 sequence (Q07912 whole entry): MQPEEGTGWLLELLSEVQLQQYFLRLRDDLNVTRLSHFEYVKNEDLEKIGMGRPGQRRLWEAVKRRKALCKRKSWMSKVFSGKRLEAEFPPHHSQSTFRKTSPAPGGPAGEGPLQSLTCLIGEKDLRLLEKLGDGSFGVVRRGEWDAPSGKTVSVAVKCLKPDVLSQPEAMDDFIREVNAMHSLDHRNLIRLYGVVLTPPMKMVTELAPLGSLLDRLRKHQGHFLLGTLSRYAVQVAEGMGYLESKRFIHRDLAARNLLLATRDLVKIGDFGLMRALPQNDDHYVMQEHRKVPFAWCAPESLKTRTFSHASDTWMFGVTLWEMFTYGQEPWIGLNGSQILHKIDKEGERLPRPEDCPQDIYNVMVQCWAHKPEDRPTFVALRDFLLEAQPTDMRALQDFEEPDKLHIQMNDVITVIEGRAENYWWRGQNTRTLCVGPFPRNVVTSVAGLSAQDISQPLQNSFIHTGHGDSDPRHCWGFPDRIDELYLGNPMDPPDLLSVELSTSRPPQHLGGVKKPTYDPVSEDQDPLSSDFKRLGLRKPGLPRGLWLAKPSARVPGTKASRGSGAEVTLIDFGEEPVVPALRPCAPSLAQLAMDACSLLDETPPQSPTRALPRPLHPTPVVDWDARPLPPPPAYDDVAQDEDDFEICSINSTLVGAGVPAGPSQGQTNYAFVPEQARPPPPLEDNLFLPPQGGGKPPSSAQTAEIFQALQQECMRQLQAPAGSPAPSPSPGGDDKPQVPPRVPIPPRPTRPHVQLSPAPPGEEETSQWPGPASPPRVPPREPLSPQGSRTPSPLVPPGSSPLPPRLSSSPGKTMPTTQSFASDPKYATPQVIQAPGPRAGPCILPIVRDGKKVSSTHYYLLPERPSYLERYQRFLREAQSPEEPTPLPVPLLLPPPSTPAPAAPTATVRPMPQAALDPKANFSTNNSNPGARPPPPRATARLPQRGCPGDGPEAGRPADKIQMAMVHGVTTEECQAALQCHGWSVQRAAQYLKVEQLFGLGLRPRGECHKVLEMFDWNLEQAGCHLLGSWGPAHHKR
T10 sequence (P04626 23-1255): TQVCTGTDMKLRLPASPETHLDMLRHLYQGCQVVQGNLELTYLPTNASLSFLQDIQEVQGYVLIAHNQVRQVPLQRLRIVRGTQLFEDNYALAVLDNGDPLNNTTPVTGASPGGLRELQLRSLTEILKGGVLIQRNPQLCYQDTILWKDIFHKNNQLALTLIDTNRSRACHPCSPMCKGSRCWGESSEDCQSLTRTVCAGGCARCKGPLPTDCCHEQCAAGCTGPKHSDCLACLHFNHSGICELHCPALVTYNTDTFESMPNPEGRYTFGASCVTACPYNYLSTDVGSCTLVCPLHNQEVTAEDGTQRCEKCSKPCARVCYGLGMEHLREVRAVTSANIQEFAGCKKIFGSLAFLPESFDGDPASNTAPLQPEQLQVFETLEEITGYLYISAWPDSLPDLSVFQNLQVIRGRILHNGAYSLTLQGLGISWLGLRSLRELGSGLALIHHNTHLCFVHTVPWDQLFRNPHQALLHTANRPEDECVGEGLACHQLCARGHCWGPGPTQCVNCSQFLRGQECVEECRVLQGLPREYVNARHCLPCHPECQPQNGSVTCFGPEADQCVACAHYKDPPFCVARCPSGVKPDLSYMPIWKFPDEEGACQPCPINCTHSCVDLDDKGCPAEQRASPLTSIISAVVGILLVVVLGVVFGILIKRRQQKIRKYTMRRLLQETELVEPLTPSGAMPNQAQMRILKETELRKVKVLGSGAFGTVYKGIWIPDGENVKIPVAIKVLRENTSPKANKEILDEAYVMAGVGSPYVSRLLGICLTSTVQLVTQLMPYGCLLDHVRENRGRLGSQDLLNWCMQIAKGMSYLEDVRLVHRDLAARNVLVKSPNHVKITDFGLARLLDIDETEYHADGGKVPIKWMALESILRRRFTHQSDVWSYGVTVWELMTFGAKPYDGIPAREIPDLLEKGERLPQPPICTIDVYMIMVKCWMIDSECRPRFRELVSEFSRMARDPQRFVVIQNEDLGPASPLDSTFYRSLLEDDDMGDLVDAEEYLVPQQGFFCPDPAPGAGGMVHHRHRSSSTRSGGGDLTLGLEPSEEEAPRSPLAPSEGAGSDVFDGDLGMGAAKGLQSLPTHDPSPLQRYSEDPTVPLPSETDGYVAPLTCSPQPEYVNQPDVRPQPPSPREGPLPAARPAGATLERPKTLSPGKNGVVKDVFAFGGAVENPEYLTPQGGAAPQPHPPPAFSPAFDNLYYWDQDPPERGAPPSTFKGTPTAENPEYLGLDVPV
T8 sequence (P51451 whole entry): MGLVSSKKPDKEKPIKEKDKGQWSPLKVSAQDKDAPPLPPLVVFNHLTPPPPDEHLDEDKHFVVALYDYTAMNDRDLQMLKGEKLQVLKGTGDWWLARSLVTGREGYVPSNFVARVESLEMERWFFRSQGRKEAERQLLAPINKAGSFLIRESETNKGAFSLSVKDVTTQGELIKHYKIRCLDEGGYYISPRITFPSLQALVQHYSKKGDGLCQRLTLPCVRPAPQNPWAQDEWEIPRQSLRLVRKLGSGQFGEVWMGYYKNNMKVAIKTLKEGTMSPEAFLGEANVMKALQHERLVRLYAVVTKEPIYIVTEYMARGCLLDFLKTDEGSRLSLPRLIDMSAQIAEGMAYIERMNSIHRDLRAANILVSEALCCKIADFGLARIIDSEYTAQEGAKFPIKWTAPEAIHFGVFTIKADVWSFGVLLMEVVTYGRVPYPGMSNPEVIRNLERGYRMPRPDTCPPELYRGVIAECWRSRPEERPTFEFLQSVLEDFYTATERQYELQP
T2 sequence (P42685 whole entry): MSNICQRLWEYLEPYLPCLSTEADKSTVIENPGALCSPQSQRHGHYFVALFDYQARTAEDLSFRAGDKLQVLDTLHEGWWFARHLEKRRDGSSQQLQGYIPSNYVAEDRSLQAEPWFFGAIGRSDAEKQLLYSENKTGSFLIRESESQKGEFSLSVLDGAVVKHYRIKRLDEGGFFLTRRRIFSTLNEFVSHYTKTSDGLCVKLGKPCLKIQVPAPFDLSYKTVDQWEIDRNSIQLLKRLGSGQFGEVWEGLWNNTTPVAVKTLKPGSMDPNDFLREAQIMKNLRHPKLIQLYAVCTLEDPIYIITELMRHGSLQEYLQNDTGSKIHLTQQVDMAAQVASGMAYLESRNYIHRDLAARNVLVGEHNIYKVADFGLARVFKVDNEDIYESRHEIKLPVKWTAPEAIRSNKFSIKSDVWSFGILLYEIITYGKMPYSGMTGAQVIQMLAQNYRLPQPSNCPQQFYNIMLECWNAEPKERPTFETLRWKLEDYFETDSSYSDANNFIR
T3 sequence (O94804 whole entry): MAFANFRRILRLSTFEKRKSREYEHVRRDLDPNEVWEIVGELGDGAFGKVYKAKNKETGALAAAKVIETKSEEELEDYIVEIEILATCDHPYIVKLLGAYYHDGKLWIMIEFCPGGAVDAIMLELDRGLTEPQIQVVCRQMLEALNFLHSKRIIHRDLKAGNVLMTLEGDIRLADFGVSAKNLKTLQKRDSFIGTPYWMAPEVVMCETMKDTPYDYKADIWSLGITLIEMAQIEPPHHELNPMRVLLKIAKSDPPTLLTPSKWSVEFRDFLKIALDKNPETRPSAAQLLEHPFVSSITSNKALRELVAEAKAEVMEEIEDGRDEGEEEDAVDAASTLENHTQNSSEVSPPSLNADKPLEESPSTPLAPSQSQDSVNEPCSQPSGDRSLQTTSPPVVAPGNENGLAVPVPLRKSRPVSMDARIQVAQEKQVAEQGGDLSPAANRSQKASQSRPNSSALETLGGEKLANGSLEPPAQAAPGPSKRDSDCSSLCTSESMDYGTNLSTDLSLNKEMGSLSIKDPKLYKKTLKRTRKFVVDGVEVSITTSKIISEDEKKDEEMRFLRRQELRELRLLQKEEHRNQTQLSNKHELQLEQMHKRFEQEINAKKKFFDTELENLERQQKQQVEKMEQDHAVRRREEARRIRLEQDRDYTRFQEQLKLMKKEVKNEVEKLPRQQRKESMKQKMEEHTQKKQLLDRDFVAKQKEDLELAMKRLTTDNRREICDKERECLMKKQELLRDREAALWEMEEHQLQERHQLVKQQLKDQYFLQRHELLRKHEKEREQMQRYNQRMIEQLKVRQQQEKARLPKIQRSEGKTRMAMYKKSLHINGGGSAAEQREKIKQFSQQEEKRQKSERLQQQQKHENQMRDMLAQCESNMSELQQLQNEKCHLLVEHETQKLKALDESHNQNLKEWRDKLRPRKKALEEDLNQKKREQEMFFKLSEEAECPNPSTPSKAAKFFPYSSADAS

inhibition at 1 µM (TSSK1(h))	IC50 (TSSK1(h))	inhibition at 1 µM (PTK5(h))	IC50 (PTK5(h))	inhibition at 1 µM (LOK(h))	IC50 (LOK(h))	inhibition at 1 µM (Tec(h) activated)	IC50 (Tec(h) activated)	inhibition at 1 µM (ErbB4(h))	IC50 (ErbB4(h))	inhibition at 1 µM (ACK1(h))	IC50 (ACK1(h))	inhibition at 1 µM (FAK(h))	IC50 (FAK(h))	inhibition at 1 µM (Blk(h))	IC50 (Blk(h))	inhibition at 1 µM (ALK(h))	IC50 (ALK(h))	inhibition at 1 µM (ErbB2(h))	IC50 (ErbB2(h))	Compound
84%	104 nM	39%	644 nM	24%	1950 nM	80%	150 nM	90%	46 nM	81%	86 nM	68%	235 nM	83%	143 nM	85%	79 nM	72%	55 nM	C=CC(=O)Nc1cc(Nc2nccc(-c3c4n(c5ccccc35)CCCC4)n2)c(OC)cc1N(C)CCN(C)C [SH-1028]
98%	73 nM	64%	736 nM	72%	593 nM	77%	272 nM	92%	84 nM	90%	124 nM	87%	267 nM	85%	229 nM	92%	53 nM	83%	197 nM	C=CC(=O)Nc1cc(Nc2nccc(-c3c4n(c5ccccc35)CCCC4)n2)c(OC)cc1N(C)CCNC [Imp3]
